Data set [1] in a line: Selectivity index, ratio of CC50 for human HepG2.2.2.15 cells to IC50 for Hepatitis B virus infected in human HepG2.2.2.15 cells. The format is toxicity, cell-based. The settings on record: read-out: Selectivity Index.
Data set [2] can be described thus: Antiviral activity against Hepatitis B virus infected in human HepG2 2.2.15 cells assessed as inhibition of DNA replication. The format is functional, cell-based.
A short description of data set [3]: Antiviral activity against lamivudine/entecavir- resistant Hepatitis B virus infected in human HepG2 A64 cells assessed as inhibition of DNA replication. The format is functional, cell-based.
Data set [4] can be described thus: Cytotoxicity against human HepG2 2.2.15 cells infected with Hepatitis B virus assessed as reduction in cell growth by CCK8 assay. Format: toxicity, cell-based. Background: Tetrazolium dyes change colour on reduction, which living cells bring about.
For data set [5], the system named is Hepatitis B virus. Kind of data set: Antiviral activity against lamivudine/entecavir-resistant Hepatitis B virus infected in human HepG2 A64 cells assessed as inhibition of DNA replication at 1 uM incubated for 72 hrs by RT PCR analysis. Format: functional, organism-based. The settings on record: for IC50: HepG2.A64, 72 h; for inhibition at 1 µM: HepG2.A64, dose 1 µM, time 72 hrs.

The subject of data set [6] is Hepatitis B virus. Kind of data set: Antiviral activity against wild type Hepatitis B virus infected in human HepG2.2.2.15 cells assessed as inhibition of DNA replication at 1 uM incubated for 72 hrs by RT PCR analysis. The format is functional.
A short description of data set [7]: Selectivity index, ratio of CC50 for human HepG2.2.2.15 cells to IC50 for lamivudine/entecavir-resistant Hepatitis B virus infected in human HepG2 A64 cells. Format: toxicity, cell-based. The settings on record: HepG2.2.2.15 cells (CC50), read-out: Selectivity Index.
Data set [8] has as its target T1, Toll-like receptor 8 (Homo sapiens) (UniProt Q9NR97).
T1 sequence (whole entry): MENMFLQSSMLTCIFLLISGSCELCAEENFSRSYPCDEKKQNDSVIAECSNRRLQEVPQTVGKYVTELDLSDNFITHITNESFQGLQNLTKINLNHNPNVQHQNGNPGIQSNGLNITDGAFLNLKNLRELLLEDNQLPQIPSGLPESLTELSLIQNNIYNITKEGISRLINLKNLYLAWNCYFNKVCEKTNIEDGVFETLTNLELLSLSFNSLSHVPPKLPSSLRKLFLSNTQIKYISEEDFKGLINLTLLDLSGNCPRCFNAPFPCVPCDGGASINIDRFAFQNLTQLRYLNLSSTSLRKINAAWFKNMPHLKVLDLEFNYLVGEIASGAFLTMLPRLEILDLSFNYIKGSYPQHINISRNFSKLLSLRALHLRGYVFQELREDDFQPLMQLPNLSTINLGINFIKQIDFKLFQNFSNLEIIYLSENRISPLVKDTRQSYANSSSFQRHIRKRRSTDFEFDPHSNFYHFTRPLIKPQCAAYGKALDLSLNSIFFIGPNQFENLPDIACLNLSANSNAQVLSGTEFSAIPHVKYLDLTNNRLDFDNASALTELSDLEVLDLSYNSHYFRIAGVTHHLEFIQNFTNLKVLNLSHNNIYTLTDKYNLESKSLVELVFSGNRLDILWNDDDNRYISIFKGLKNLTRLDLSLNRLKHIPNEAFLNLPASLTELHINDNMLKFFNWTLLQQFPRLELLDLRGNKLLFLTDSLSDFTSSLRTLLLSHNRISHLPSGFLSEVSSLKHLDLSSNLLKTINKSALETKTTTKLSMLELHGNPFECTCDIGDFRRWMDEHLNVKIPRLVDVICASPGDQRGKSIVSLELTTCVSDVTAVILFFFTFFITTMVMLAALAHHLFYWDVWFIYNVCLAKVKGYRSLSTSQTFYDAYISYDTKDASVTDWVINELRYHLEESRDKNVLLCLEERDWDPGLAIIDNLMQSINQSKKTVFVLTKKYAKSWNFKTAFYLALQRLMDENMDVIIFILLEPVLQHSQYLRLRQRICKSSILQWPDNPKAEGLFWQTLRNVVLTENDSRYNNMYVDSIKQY
The data set can be described thus: Agonist activity at human TLR8 expressed in HEK293T cells co-transfected with NFKappaB luciferase and renilla plasmids assessed as NF-kappaB activation measured after 48 hrs by dual-luciferase reporter gene assay. The format is cell-based. The settings on record: filed as agonist, DDE = dose-dependent effect.

As a reminder, the IC50 is the concentration that inhibits the measured activity by half. In general, CC50 refers to the concentration that lowers cell viability or growth by half. One may read the inhibition as the change of the read-out against control, counted positive when it falls.

A value given as a limit tells only on which side of the number the result lay.

As for `Nc1ccn([C@@H]2CS[C@H](CO)O2)c(=O)n1` [LAMIVUDINE], the selectivity ratio in data set [1] was greater than 1000. Moreover, the IC50 in data set [2] was less than 100 nM; in data set [3], greater than 100000 nM. The CC50 in data set [4] is greater than 100 µM.

Take `CCN(CC)CCOc1ccc2nc(SCc3ccccc3)n(Cc3cccs3)c(=O)c2c1`: the selectivity ratio in data set [1] was determined as 22.9. Besides, the IC50 in data set [2] worked out at 830 nM. Moreover, in data set [4], the CC50 is greater than 10 µM.

Regarding `CN1CCN(CCCOc2ccc3nc(SCc4ccc(F)cc4)n(Cc4ccco4)c(=O)c3c2)CC1`, the CC50 in data set [4] worked out at 2.9 µM.

For `Nc1nccc(OCCCCOc2ccc3nc(SCc4ccccc4)n(Cc4ccco4)c(=O)c3c2)n1`, the CC50 in data set [4] was greater than 10 µM.

As for `CN1CCN(CCCOc2ccc3nc(SCc4cccc(F)c4)n(Cc4ccco4)c(=O)c3c2)CC1`, the selectivity ratio in data set [1] is greater than 4.26. In addition, the IC50 in data set [2] is 990 nM. Moreover, the CC50 in data set [4] came to 4.22 µM.

As to `Nc1nccc(OCCCOc2ccc3nc(SCc4ccccc4)n(CC4CCCCC4)c(=O)c3c2)n1`, in data set [4], the CC50 was greater than 10 µM.

For the molecule `Nc1nccc(OCCCOc2ccc3nc(SCc4ccc(F)cc4)n(Cc4ccccc4)c(=O)c3c2)n1`, the CC50 in data set [4] was greater than 10 µM.

In the case of `Nc1nccc(OCCOc2ccc3nc(SCc4ccccc4)n(Cc4ccco4)c(=O)c3c2)n1`, the CC50 in data set [4] was found to be 1.25 µM.

With `COc1ccccc1CSc1nc2ccc(OCCCN3CCC(O)CC3)cc2c(=O)n1Cc1ccco1`, in data set [4], the CC50 is greater than 10 µM.

Take `Nc1nccc(OCCCOc2ccc3nc(SCc4ccccc4)n(Cc4ccccc4)c(=O)c3c2)n1`: the CC50 in data set [4] was greater than 10 µM.

With `Nc1nccc(OCCCOc2ccc3nc(SCc4ccccc4)n(Cc4cccs4)c(=O)c3c2)n1`, in data set [4], the CC50 is greater than 10 µM.

Regarding `CN1CCN(CCCOc2ccc3nc(SCc4ccccc4)n(Cc4ccco4)c(=O)c3c2)CC1`, the selectivity ratio in data set [1] was greater than 15.9. The IC50 in data set [2] worked out at 630 nM. Also, the CC50 in data set [4] is greater than 10 µM.

Regarding `O=c1c2cc(OCCCN3CCC(O)CC3)ccc2nc(SCc2cccc(F)c2)n1Cc1ccco1`, the selectivity ratio in data set [1] is greater than 2.17. Further, in data set [2], the IC50 was found to be 870 nM. Also, the CC50 in data set [4] turned out to be 1.83 µM.

Regarding `COc1ccccc1CSc1nc2ccc(OCCCN3CCN(C)CC3)cc2c(=O)n1Cc1ccco1`, in data set [4], the CC50 is greater than 10 µM.

On to `O=c1c2cc(OCCCN3CCC(O)CC3)ccc2nc(SCc2ccccc2)n1Cc1ccco1`, for which the selectivity ratio in data set [1] was greater than 14.3. In addition, in data set [2], the IC50 came to 700 nM. Further, the CC50 in data set [4] is greater than 10 µM.

For `Nc1nccc(OCCCOc2ccc3nc(SCc4ccccc4)n(Cc4ccco4)c(=O)c3c2)n1`, the selectivity ratio in data set [1] is greater than 32.2; in data set [7] it was greater than 41.7. The IC50 in data set [2] worked out at 310 nM; with Hepatitis B virus [5], 240 nM; in data set [3], 210 nM. The inhibition at 1 µM was found to be 75.3% in the data set with Hepatitis B virus [5] and 79.3% with Hepatitis B virus [6]. For the same molecule, the CC50 in data set [4] is greater than 10 µM.

Turning to `Nc1nccc(OCCCOc2ccc3nc(SCc4cccc(F)c4)n(Cc4ccccc4)c(=O)c3c2)n1`, the CC50 in data set [4] was greater than 10 µM.

With `COc1ccccc1CSc1nc2ccc(OCCCOc3ccnc(N)n3)cc2c(=O)n1Cc1ccco1`, the selectivity ratio in data set [1] is greater than 66.7; in data set [7], greater than 100. The IC50 in data set [2] was 150 nM; with Hepatitis B virus [5], 100 nM; in data set [3] it was 100 nM. For the same molecule, the inhibition at 1 µM with Hepatitis B virus [5] stood at 77.3%; with Hepatitis B virus [6], 80.9%. Moreover, the Activity result in data set [8] was “Dde”. The CC50 in data set [4] is greater than 10 µM.

Turning to `O=c1c2cc(OCCCN3CCC(O)CC3)ccc2nc(SCc2ccc(F)cc2)n1Cc1ccco1`, the cytotoxic concentration (CC50) in data set [4] was greater than 10 µM.

(Values after ChEMBL document CHEMBL5154728, “Design and synthesis of novel quinazolinone derivatives as anti-HBV agents with TLR8 agonist effect” (Eur J Med Chem, 2022).)
